Measured values reported in patent publication US20250034210A1, “DLL3 TARGETING PEPTIDES AND CONSTRUCTS THEREOF” (MARIANA ONCOLOGY INC., priority 2023, published 2025).
*1 amine or outer side, *2 acyl side, *3 side chain or, on linkers, in order; H or OH if unused. Where a SMILES comes first, the peptide text is derived from it. Bridges are numbered along the chain shown (N, C = ends). [ ]: non-standard residue; d: D form. The star is where a group is joined. DOTA = O=C(O)CN1CCN(CC(=O)O)CCN(CC(=O)*)CCN(CC(=O)O)CC1; γGlu = O=C(O)[C@H](CCC(=O)[*:2])N[*:1]; Ahx = NCCCCCC(=O)O

How the values were obtained:
human DLL3 = target: T1, human DLL3 (Homo sapiens, UniProt Q9NYJ7); assay: Affinity determination by Surface Plasmon Resonance (SPR), biotinylated human DLL3 immobilized on streptavidin sensor chip; conditions: 25° C., Biacore, 1:1 binding model
T1 construct: biotin (biotinylated)
T1 sequence (Q9NYJ7 27-618): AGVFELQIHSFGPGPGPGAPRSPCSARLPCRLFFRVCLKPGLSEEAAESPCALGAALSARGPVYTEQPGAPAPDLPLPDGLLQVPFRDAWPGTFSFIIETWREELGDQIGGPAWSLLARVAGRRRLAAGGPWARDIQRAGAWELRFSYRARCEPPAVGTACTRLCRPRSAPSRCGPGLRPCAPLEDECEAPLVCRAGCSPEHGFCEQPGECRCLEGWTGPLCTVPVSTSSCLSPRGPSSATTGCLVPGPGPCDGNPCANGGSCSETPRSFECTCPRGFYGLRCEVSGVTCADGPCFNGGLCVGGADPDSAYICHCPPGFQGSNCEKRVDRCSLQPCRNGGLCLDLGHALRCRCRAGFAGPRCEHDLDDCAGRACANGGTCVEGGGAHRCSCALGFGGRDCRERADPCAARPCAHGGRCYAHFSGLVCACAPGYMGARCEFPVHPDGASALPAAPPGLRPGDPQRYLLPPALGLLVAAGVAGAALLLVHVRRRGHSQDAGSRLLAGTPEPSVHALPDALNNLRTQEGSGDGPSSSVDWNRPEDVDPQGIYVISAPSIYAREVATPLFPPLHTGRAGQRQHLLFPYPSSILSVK

SHP-77 tumors = assay: Ex vivo biodistribution of radiolabeled peptides in nude mice bearing SHP-77 tumors; conditions: [^177Lu]Lu labelling; nude mice bearing SHP-77 tumors (n = 3); 24 hours post-injection; intravenous
Procedure: [^177Lu]LuCl3 was received from venders in HCl solution. For every mCi of [^177Lu]LuCl3 added to the reaction vial (1.5 mL Eppendorf vial), ammonium acetate buffer (0.2 M, pH 4.9, 100 μL, containing 1% w/v ascorbic acid and 6% v/v ethanol) and peptide conjugate (1 nmol also referred to herein as “chelator-peptides”) was added. A peptide conjugate of the present disclosure is also referred to herein as a “chelator-peptide”. The pH of the solution was determined to be approximately 5 by using pH strips. The reaction vial was incubated at 80° C., 700 RPM for 17-20 minutes. A sample from the reaction was analyzed by RP-HPLC using an Agilent Infinity II 1260 HPLC to determine reaction completion and radiochemical purity of [^177Lu]Lu-chelator-peptide. HPLC conditions: Waters XBridge BEH C18 Column, 130 A, 3.5 um, 4.6 mm×250 mm; mobile phase: Solvent A=water (with 0.1% formic acid), solvent B=acetonitrile (with 0.1% formic acid). Gradients: 25-45% B in 10 minutes, 45-65% B in 12 minutes, 65-90% in 6 minutes at a flow rate of 0.5 mL/min. Required amounts of the product was formulated in 1% PBSA for cell studies.
Mice were intravenously injected (via the lateral tail vein) with a bolus dose of the radiolabeled peptides for ex vivo biodistribution studies when tumor volumes were in range of 200-400 mm^3 for xenograft mice and when age of the mice was 5-7 weeks for tumor naïve mice studies. To assess the amount of radionuclide injected into individual mice the syringe was assayed in a dose calibrator before and after injection for [^177Lu]Lu-peptide.
Mice were euthanized at pre-determined time points and selected tissues were resected and collected into pre-weighed tubes. The tubes were then reweighed post resection, the difference giving the weight of each tissue. Radioactivity in each tissue was measured using a gamma counter. Counts were decay corrected to the time of injection and percentage of injected activity per gram (% IA/g) was calculated for each tissue based on the injected activity into each individual mouse. Injected activity was converted to counts based on the sensitivity of the gamma counter. The counts in tissue were then converted to the percentage of injected activity and this was divided by the mass of tissue to give % IA/g.

Kd (human DLL3)	kidney uptake (% IA/g) (SHP-77 tumors)	tumor uptake (% IA/g) (SHP-77 tumors)	SMILES
1 to 10 nM	D (% IA/g > 10 in kidney)	A (0 < % IA/g ≤ 5 in tumor)	CC[C@H](C)[C@H](NC(=O)[C@@H](NC(=O)[C@H](Cc1c[nH]c2ccccc12)NC(=O)CCCCCNC(=O)CN1CCN(CC(=O)O)CCN(CC(=O)O)CCN(CC(=O)O)CC1)[C@@H](C)O)C(=O)N[C@H]1CSSC[C@@H](C(=O)N[C@@H](Cc2c[nH]c3ccccc23)C(=O)N2CCC[C@@H]2C(N)=O)NC(=O)[C@H](CC(=O)O)NC(=O)[C@H](Cc2cnc[nH]2)NC(=O)[C@H](Cc2c[nH]c3ccccc23)NC(=O)[C@H](CC(N)=O)NC(=O)[C@H](CC(N)=O)NC1=O [compound 18, DOTA-Ahx-W-T-I-C(3)-N-N-W-H-D-C(3)-W-P-CONH2] ({DOTA-Ahx}-WTICNNWHDCW[dP]-NH2; disulfide 4-10)
–	D (% IA/g > 10 in kidney)	A (0 < % IA/g ≤ 5 in tumor)	CC[C@H](C)[C@H](NC(=O)[C@@H](NC(=O)[C@H](Cc1c[nH]c2ccccc12)NC(=O)CC[C@H](NC(=O)CC[C@H](NC(=O)CC[C@H](NC(=O)CN1CCN(CC(=O)O)CCN(CC(=O)O)CCN(CC(=O)O)CC1)C(=O)O)C(=O)O)C(=O)O)[C@@H](C)O)C(=O)N[C@H]1CSSC[C@@H](C(=O)N[C@@H](Cc2c[nH]c3ccccc23)C(=O)N2CCC[C@H]2C(N)=O)NC(=O)[C@H](CC(=O)O)NC(=O)[C@H](Cc2c[nH]cn2)NC(=O)[C@H](Cc2c[nH]c3ccccc23)NC(=O)[C@H](CC(N)=O)NC(=O)[C@H](CC(N)=O)NC1=O [compound 82, DOTA-(gE)3-W-T-I-C(3)-N-N-W-H-D-C(3)-W-P-CONH2] ({DOTA-γGlu-γGlu-γGlu}-WTICNNWHDCWP-NH2; disulfide 4-10)
